Patent US20120022142A1, “RNA Interference Mediated Inhibition of Signal Transducer and Activator of Transcription 1 (STAT1) Gene Expression Using Short Interfering Nucleic Acid (siNA)” (Merck Sharp & Dohme Corp., priority 2009, published 2012)
[invAb] = inverted abasic unit; m = 2'-O-methyl; r = 2'-OH (RNA); f = 2'-fluoro

Legend:
STAT1 protein = assay: STAT1 Western Blot in transfected A549 cells; type: cell-based, human; conditions: % protein remaining (STAT1α and STAT1β together), A549, 30 nM; for Protein 24 hr: 24 hr post-transfection; for Protein 48 hr: 48 hr post-transfection; for Protein 72 hr: 72 hr post-transfection
Protocol: (§1) A549 cells were plated in 6-well plates at final counts of 70,000 cells/well in 2 ml of complete growth media (Ham's F12, Cellgro Cat# 10-080-CV+10% FBS). Transfection was performed using 2.5 uL of RNAiMax (Invitrogen Cat# 13778-150) per well. Final concentration of siNAs was 30, 3, 0.3, 0.03, 0.003, and 0.0003 nM done in duplicate. The siNAs were incubated for 24-72 hours. The duplicate samples were pooled to prepare protein lysates and RNA using the “PARIS” Protein and RNA Isolation System from Ambion, Cat# 1921. The total protein in the lysates was measured using a Bradford Dye Reagent (Bio-Rad, Cat# 500-0205).SDS-PAGE/Western Blotting was performed on the on the protein samples and RT-PCR on the RNA samples.
The protein source for the Western Blot experiments were from transfection of A549 cells in a 6 well plate, as described above.
Protein samples were diluted 1:1 in 2× Laemmli buffer with 5% β-mercapto-ethanol and incubated at 95° C. for 5 minutes. 10 ug of protein was loaded in each lane of 7.5% Tris-HCl gel. One lane was designated for MagicMark Protein Standard (Invitrogen # LC5602). Another lane was designated for a Precision Plus Protein Standard (Bio-Rad, Cat# 161-0374). The gel was run at 100V for approximately 2 hours. Protein was transferred to a PVDF membrane at 100V for 60 minutes. Once the transfer was finished, the membrane was blocked in 1% Casein in PBS (BioRad Cat#161-0783) for 1 hour on a plate rocker at room temperature followed by the overnight incubation at 4° C. with STAT1 primary antibody (Clontech, Cat# 610185) diluted 1:500 in 1% Casein in PBS. On the next day, the blot was washed 4×5 minutes in PBST (0.1% Tween-20 in PBS) solution and incubated for 30 minutes at room temperature with goat anti-mouse secondary antibody (Pierce Cat #3 31430) diluted 1:20,000 in 1% Casein in PBS. Then, the blot was washed 4×5 minutes with PBST, rinsed with PBS, and incubated for 1 minute with ECL Western Blotting Substrate (Pierce Biotechnology, Cat# 32106). The bands were visualized on the Bio-Rad VersaDoc Imager.
The level of protein was quantified using the Bio-Rad VersaDoc Imager according to the protocols of that piece of equipment. A pixel count was performed in each lane using an area of identical size. Each sample was then compared to the appropriate control treated sample and converted to a percent of protein remaining compared to control.
(§2) An assessment of the level of mRNA at each timepoint was also made and protein samples from the treated cells were used in Western blots with an α-STAT1 antibody. (Clontech, Cat# 610185) and anti-Tubulin Ab (Sigma # T6199) in human A549 cells. Cells were transfected 24, 48 or 72 hours before harvesting total protein and the final concentration of siNAs was 30 nM. Lanes were loaded with 10 ug of total protein. Quantification was done of both the STAT1α and the STAT1β proteins together. All the siNAs tested reduced STAT1 protein at each of the tested timepoints, with the highest degree of protein reduction being observed at 72 hours post-transfection.

STAT1 mRNA [1] = assay: Efficacy (% KD) and potency (IC50) of STAT1 mRNA knockdown of siNA leads in NIH3T3 cells; type: cell-based, mouse; conditions: mean ± S.D.; for IC50: STAT1 mRNA knockdown, read-out: Mouse (NIH3T3) IC50; for Mouse (NIH3T3) avg % KD: STAT1 mRNA, 30 nM siNA, at least three experiments
Protocol: NIH 3T3 (mouse; ATCC cat# CRL-1658): Cells were cultured at 37° C. in the presence of 5% CO2 and grown in Dulbecco's modified Eagle's medium (DMEM) with 4 mM L-glutamine adjusted to contain 1.5 g/L sodium bicarbonate and 4.5 g/L glucose and supplemented with fetal bovine serum at a final concentration of 10%, 100 μg/mL of streptomycin, and 100 U/mL penicillin.
(§3) A series of probes and primers were used to detect the various mRNA transcripts of the genes of β-Actin (human cell line only), and of STAT1 and GAPDH in mouse and human cell lines. All Taqman probes and primers for the experiments here-in described were supplied as pre-validated sets by Applied Biosystems, Inc. (see Table 2).
(§4) The assays were performed on an ABI 7900 instrument, according to the manufacturer's instructions.
(§5) The expression level of the gene of interest and % knock-down was calculated using Comparative Ct method: […]
(§6) All calculations of IC50s were performed using SigmaPlot 10.0 software. The data were analyzed using the sigmoidal dose-response (variable slope) equation for simple ligand binding. In all of the calculations of the % knock-down, the calculation was made relative to the normalized level of expression of the gene of interest in the samples treated with the non-targeting control (Ctrl siNA) unless otherwise indicated.
(§7) Certain siNAs were further analyzed for efficacy in human A549 cells and mouse NIH3T3 cells. Percent KD/reduction is represented as mean±S.D. IC50 is represented as mean±S.D. The date is summarized from at least three separate experiments and within each experiment, the data point is calculated from an n=2. The final concentration of siNA used was 30 nM.

STAT1 mRNA [2] = assay: STAT1 mRNA level at 24, 48 and 72 hours post-transfection in A549 cells; type: cell-based, human; conditions: STAT1 mRNA remaining vs control, A549, 30 nM; for mRNA 24 hr: 24 hr post-transfection; for mRNA 48 hr: 48 hr post-transfection; for mRNA 72 hr: 72 hr post-transfection
Protocol: as §1, §3, §2

STAT3 mRNA = assay: Effect of STAT1 siRNAs on expression of STAT3 mRNA in A549 cells (quantitative RT-PCR); type: cell-based, human; conditions: 1 nM siRNA, normalized to GAPDH
Description: as §3
The levels of expression of STAT3 were normalized to the level of GAPDH. There was no significant effect (p>0.05) of treatment with any of the lead STAT1 siRNAs on the expression human or mouse STAT3 mRNA at 1 nM (10 to 100 times the IC50s of the siRNAs).

STAT1 mRNA [3] = assay: Efficacy (% KD) and potency (IC50) of STAT1 mRNA knockdown of siNA leads in A549 cells; type: cell-based, human; conditions: for Human (A549) avg % KD: STAT1 mRNA, 30 nM siNA, at least three experiments
Protocol: as §1, §3, §4, §5, §6, §7

[4] = A549 cells, Table 5, read-out: IC50 vs. STAT1 mRNA
[5] = STAT1 mRNA knockdown, mean ± S.D., read-out: Human (A549) IC50

Row | Substance | Protein 24 hr (STAT1 protein) | Protein 48 hr (STAT1 protein) | Protein 72 hr (STAT1 protein) | IC50 (STAT1 mRNA [1]) | Mouse (NIH3T3) avg % KD (STAT1 mRNA [1]) | mRNA 24 hr (STAT1 mRNA [2]) | mRNA 48 hr (STAT1 mRNA [2]) | mRNA 72 hr (STAT1 mRNA [2]) | STAT3 % KD at 1 nM (STAT3 mRNA) | IC50 (STAT1 mRNA [3]; [4]) | IC50 (STAT1 mRNA [3]; [5]) | Human (A549) avg % KD (STAT1 mRNA [3]; mean ± S.D.)
1 | 25351-DC: STAT1 siNA duplex, human target site 2249; modified strands SEQ ID NO: 39 and 40 (chain 1 CCUACACGAAGAAAGAACUTT; chain 2 AGUUCUUUCUUCGUGUAGGUU; chain 1: DNA at AGT, 2'-fluoro at CU, [invAb] at 5' end, 3' end, backbone not given here; chain 2: sugars from the 5' end rrrfffffffffmfmfmmmmm, backbone not given here) | 87% | 48% | 20% | 0.248 ± 0.086 nM | 85.1 ± 3.5% | 3% | 2% | 2% | 8% | 0.025 ± 0.009 nM | 0.012 ± 0.002 nM | 91.7 ± 0.1%
2 | 25367-DC: STAT1 siNA duplex, human target site 966; modified strands SEQ ID NO: 71 and 72 (chain 1 GCUUGACAAUAAGAGAAAGTT; chain 2 CUUUCUCUUAUUGUCAAGCUU; chain 1: DNA at AGT, 2'-fluoro at CU, [invAb] at 5' end, 3' end, backbone not given here; chain 2: sugars from the 5' end rrrffffffmffmffmmmfmm, backbone not given here) | 83% | 53% | 30% | 0.16 ± 0.034 nM | 84.6 ± 2.6% | 3% | 2% | 2% | 12% | 0.01 ± 0.0064 nM | 0.032 ± 0.014 nM | 88.6 ± 1.1%
3 | 25368-DC: STAT1 siNA duplex, human target site 782; modified strands SEQ ID NO: 73 and 74 (chain 1 GUAAAGUCAGAAAUGUGAATT; chain 2 UUCACAUUUCUGACUUUACUU; chain 1: DNA at AGT, 2'-fluoro at CU, [invAb] at 5' end, 3' end, backbone not given here; chain 2: sugars from the 5' end rrrmfmfffffmmffffmfmm, backbone not given here) | 80% | 54% | 20% | 0.072 ± 0.023 nM | 89.9 ± 6.0% | 3% | 3% | 3% | −2% | 0.097 ± 0.018 nM | 0.01 ± 0.0064 nM | 89.1 ± 1.8%
4 | 25369-DC: STAT1 siNA duplex, human target site 602; modified strands SEQ ID NO: 75 and 76 (chain 1 GGAAAAGCAAGCGUAAUCUTT; chain 2 AGAUUACGCUUGCUUUUCCUU; chain 1: DNA at AGT, 2'-fluoro at CU, [invAb] at 5' end, 3' end, backbone not given here; chain 2: sugars from the 5' end rrrffmfmfffmfffffffmm, backbone not given here) | 85% | 58% | 38% | 0.58 ± 0.109 nM | 60.8 ± 3.5% | 8% | 7% | 14% | −2% | 0.012 ± 0.002 nM | 0.097 ± 0.018 nM | 88.8 ± 3.1%
5 | 25372-DC: STAT1 siNA duplex, human target site 968; modified strands SEQ ID NO: 81 and 82 (chain 1 UUGACAAUAAGAGAAAGGATT; chain 2 UCCUUUCUCUUAUUGUCAAUU; chain 1: DNA at AGT, 2'-fluoro at CU, [invAb] at 5' end, 3' end, backbone not given here; chain 2: sugars from the 5' end rrrffffffffmffmffmmmm, backbone not given here) | 76% | 54% | 29% | 0.182 ± 0.051 nM | 87.3 ± 7.2% | 4% | 3% | 3% | 3% | 0.032 ± 0.014 nM | 0.025 ± 0.009 nM | 86.0 ± 2.0%
